By MIC is commonly meant the least concentration at which growth counts as inhibited. One may read the IC50 as the concentration needed to halve the response being measured. Read a high IC50 as weaker potency.

The values that follow come from patent US20260373101A1, “POLYAMINATED FATTY ACIDS FOR USE AS POTENTIATORS OF ANTIBACTERIAL ACTIVITY” (priority 2023, published 2026).

Converted amounts (≈) assume the structure as drawn.

Assay type in all cases: cell-based
For one experiment, the system named is E. faecalis ATCC29212. As to the kind of experiment: Intrinsic antibacterial activity, standard microdilution (CLSI). To be noted: Enterococcus faecalis; E. faecalis ATCC29212, compound alone, 24 h, 37 °C. The protocol:
(§1) The bacterial strains used in the examples below are the reference strains P. aeruginosa ATCC27853, E. coli ATCC25922, K. pneumoniae ATCC51296, S. aureus ATCC25923 and E. faecalis ATCC29212. The bacterial strains were previously stored in 15% (v/v) glycerol at −80 °C for cryoprotection. One colony of the fresh culture of each strain was incubated in a culture tube containing 3 ml of Mueller-Hinton broth (MH2) at 37 °C overnight with agitation. This suspension was used for inoculum preparation.
(§2) The antibacterial activity of said polyaminated fatty acid compounds was measured using a standard microdilution test based on Clinical and Laboratory Standards Institute (CLSI) guidelines. This method was slightly modified by increasing the assay volumes to 200 μl so as to improve reproducibility.
(§3) A negative control which corresponds to 2 ml of sterile culture medium and a positive control which corresponds to a mixture of 1980 μl of culture medium and 20 μl of bacterial suspension from a thawed biological strain (biological strains are stored at −80 °C in glycerol) were prepared.
(§4) The tubes were incubated in an incubator shaker “Infors” at 37 °C for 24 hours at 100 round per minute (rpm).
(§5) The polyaminated fatty acid compounds to be tested were prepared in water at a concentration of 10 mM.
(§6) The required volume of the microbial suspension to be inoculated was calculated for an optical density (OD) measured corresponding to a value equal to 0.01 in each well by using a spectrophotometer at 600 nm. In the microplate, the first row corresponded to the negative control (200 μl of sterile culture medium in each well), the second row to the positive control (seeded culture medium), the third row was loaded twice with bacterial suspension and with 8 μl of a given polyaminated fatty acid compound in each well. Subsequently, a half-fold cascade dilution was performed from this line. The first column was used as an inhibition control. A sterile filter was then placed on the microplate allowing the passage of gases but not contaminants. The microplate was incubated at 37 °C in a humid atmosphere for 24 hours. After 24 hours of incubation, an optical density measurement was performed by taking 100 μl of the bacterial suspension diluted in 900 μl of sterile culture medium.
(§7) The medium used was Mueller-Hinton medium (MH) for bacteria. All tests were performed in duplicate.
(§8) Table 1 below reports the intrinsic antibacterial activity of some polymaminated fatty acids prepared in example 1 (MIC in μM) as well as their toxicity towards eucaryotic cells (IC50 in μM).

Experiment [1] concerns P. aeruginosa ATCC27853. The experiment is described as above. To be noted: Pseudomonas aeruginosa; P. aeruginosa ATCC27853, compound alone, 24 h, 37 °C. The protocol: as §1, §2, §3, §4, §5, §6, §7, §8
The next experiment relates to S. aureus ATCC25923. The description is as above. To be noted: Staphylococcus aureus; S. aureus ATCC25923, compound alone, 24 h, 37 °C. The protocol:
as §1, §2, §3, §4, §5, §6, §7, §8

Experiment [2] relates to E. coli ATCC28922. The experiment is described as above. To be noted: Escherichia coli, ATCC28922, 24 h.
The subject of experiment [3] is Chinese hamster ovary cells (CHO-K1). Description: Toxicity on mammalian cells, WST1 assay. The note with it: Cricetulus griseus; CHO-K1 cell viability, WST1, 24 h. The protocol: The WST1 assay was used to measure the cytotoxic activity of the polyaminated fatty acid compounds. It is a colorimetric assay that measures viability and cell proliferation rate. It is based on the cleavage of colorless tetrazolium salts WST-1 (4-[3-(4-iodophenyl)-2-(4-nitrophenyl)-2H-5-tetrazolio]-1,3-benzene disulfonate) by mitochondrial dehydrogenases into yellow formazan derivative, quantifiable by spectrophotometry at 420-480 nm.
The WST1 assay was performed on Chinese hamster ovary cells. CHO-K1 cells (ATCC, USA) were maintained in culture in “Mac Coy's 5A” medium supplemented with 10% fetal calf serum, 2 mM L-glutamine and streptomycin penicillin mixture (100 U/ml: 10 μg/ml). Incubation is carried out at 37 °C under CO2 enriched atmosphere (5% by volume) and subcultured every two days.
Cells are transferred to 96-well plates (25,000 cells/ml) in complete “Mac Coy's 5A medium”, and maintained for 24 h at 37 °C under a humid CO2-enriched atmosphere (5% by volume). Increasing concentrations of given polyaminated fatty acid compounds are added to the wells in duplicate assays and 8 growth controls containing cells in medium alone are included in each assay run. After 24 hours at 37 °C (5% CO2), the culture medium is removed, the cells are rinsed in phosphate buffer (PBS) and 50 μL of PBS containing 10% WST1 reagent is added to each well. After 20 minutes of incubation at 37 °C, the results are read by spectrophotometry at 450 nm.
The results are expressed as dose-response relationships, modeled by a non-linear regression analysis using TableCurve software. The 50% Inhibitory Concentration (IC50) represents the concentration of polyaminated fatty acid compound capable of reducing cell viability by 50%.
A general note: Formazan colour is commonly taken as a measure of viable cells.

Experiment [4] relates to P. aeruginosa ATCC27853. Description: Antibacterial activity in combination with doxycycline. To be noted: Pseudomonas aeruginosa; P. aeruginosa ATCC27853 + Doxycycline (2 μg/ml), 24 h. The protocol:
(§9) 100 μl of a liquid culture medium is deposited in each well of a 96-well microplate, and then inoculated with the bacterial suspension of example 2.1 prepared for the positive control. The volume needed to inoculate is calculated for an OD of 0.01 which corresponds to approximately 5,106 bacteria in each well. In this plate, the first row corresponds to a negative control (200 μl of sterile culture medium in each well), the second row to a positive control (100 μl of sterile culture medium with 100 μl of the bacterial suspension), the third row contains 192 μl of culture medium and 8 μl of polyaminated fatty acid compound to be tested in each well. Subsequently, a cascade dilution is performed from this line. Next, 3-8 μl of a doxycycline solution (1 mg dissolved in 20 ml) is added to each well of the lines to obtain a final antibiotic concentration of 2 μg/ml. Then, 92 μl of bacterial suspension is added to lines 3 to 8. The MIC with a concentration of doxycycline of 2 μg/ml in the presence of X μg/ml of polyaminated fatty acid compound is determined after 24 hours of incubation at 37 °C in a humid atmosphere.
The table 2 below reports the antibacterial activity (MIC in μM) of a combination of some polyaminated fatty acids prepared in example 1 with two antibacterial drugs doxycycline and erythromycin. […] On the Gram-negative strain of E. coli ([…]), erythromycin has a MIC of 50 μg/ml.

Experiment [5] deals with E. coli ATCC28922. As to the kind of experiment: Antibacterial activity in combination with erythromycin. To be noted: Escherichia coli, ATCC28922, 24 h. The protocol: as §9
The table 2 below reports the antibacterial activity (MIC in μM) of a combination of some polyaminated fatty acids prepared in example 1 with two antibacterial drugs doxycycline and erythromycin. […]

Take `CCCCC/C=C\C/C=C\CCCCCCCC(=O)NCCCN(CCCN)CCCN` [PAFA10]: the MIC against E. faecalis ATCC29212 was 25 µM (≈ 11.3 µg/mL); in the experiment with P. aeruginosa ATCC27853 [1] it was 25 µM (≈ 11.3 µg/mL); in the experiment with S. aureus ATCC25923, 25 µM (≈ 11.3 µg/mL); in the experiment on E. coli ATCC28922 [2] it was above 200 µM; with P. aeruginosa ATCC27853 [4], 12.5 µM. It took 79 µM to reach half-maximal inhibition in experiment [3] (IC50).
As for `CC[C@H]1OC(=O)[C@H](C)[C@@H](O[C@H]2C[C@@](C)(OC)[C@@H](O)[C@H](C)O2)[C@H](C)[C@@H](O[C@@H]2O[C@H](C)C[C@H](N(C)C)[C@H]2O)[C@](C)(O)C[C@@H](C)C(=O)[C@H](C)[C@@H](O)[C@]1(C)O` [erythromycin], in the experiment on E. coli ATCC28922 [5], the MIC was 50 µg/mL.
As to `CCCCC/C=C\C/C=C\CCCCCCCC(=O)NCCCNCCCN` [PAFA11], the MIC was determined as 12.5 µM (≈ 4.92 µg/mL) in the experiment on E. faecalis ATCC29212; 25 µM (≈ 9.84 µg/mL) with P. aeruginosa ATCC27853 [1]; 12.5 µM (≈ 4.92 µg/mL) in the experiment on S. aureus ATCC25923; 100 µM (≈ 39.4 µg/mL) against E. coli ATCC28922 [2]; 12.5 µM in the experiment on P. aeruginosa ATCC27853 [4]. For the same compound, the IC50 in experiment [3] is 21 µM.
Regarding `CCCCC/C=C\C/C=C\CCCCCCCC(=O)NCCCNCCCCNCCCN` [PAFA14], the MIC in the experiment with E. faecalis ATCC29212 turned out to be 12.5 µM (≈ 5.81 µg/mL); against P. aeruginosa ATCC27853 [1] it was 100 µM (≈ 46.5 µg/mL); with S. aureus ATCC25923 it was 12.5 µM (≈ 5.81 µg/mL); in the experiment with E. coli ATCC28922 [2], 25 µM (≈ 11.6 µg/mL); in the experiment on P. aeruginosa ATCC27853 [4], 6.25 µM. In addition, inhibition in experiment [3] was half-maximal at 98 µM (IC50).
